Assay results from PubChem BioAssay AID1919014 (Molecular Pharmacology Branch, DTP, NCI, 2023).

Test system: NCI-H1341 complex spheroids, percent test/control
Test: Anticancer human tumor NCI-H1341 cell line growth inhibition [AhR];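 also: spheroids exposed to agents for seven days before readout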
Conditions: for IC50: curve of first compound; for viability, T/C: stronger effect = lower value
Excerpt: Multicellular complex tumor spheroid response to aryl hydrocarbon receptor antagonists in combination with a variety of drugs and investigational agents in selected tumor cell lines
The current study was undertaken to assess response to aryl hydrocarbon receptor antagonists in combination with standard-of-care drugs and investigational agents in solid tumor complex spheroid models. Complex spheroids include a stromal component modeled by human endothelial cells (HUVEC) and fibroblasts modeled by human mesenchymal stem cells (MSCs). The concentration ranges selected for each drug and investigational agent were based upon clinically achievable concentrations if the clinical Cmax of the agent was known.
Compounds. The drugs and investigational agents: BAY 2416964 (NSC825713), GNF351 (NSC835774), CH-223191 (NSC835775), CPI-455 (NSC825282), aza-TdCyd (NSC777586), decitabine (NSC127716), belinostat (NSC758774), entinostat (NSC756642), pevonedistat (NSC761192), tazemetostat (NSC777109), talazoparib (NSC765396), olaparib (NSC753686), selinexor (NSC780203), nedisertib (M3814, NSC802822), bortezomib (NSC756655), venetoclax (NSC766270), doxorubicin (NSC123127), elimusertib (BAY189344, NSC800525), ceralasertib (AZD6738, NSC777638), TAK-243 (NSC785004), alisertib (NSC759677), etoposide (NSC141540), topotecan (NSC609699), eribulin (NSC707389), gemcitabine (NSC613327), carboplatin (NSC241240), cisplatin (NSC119875), and SN-38 (NSC673596) were obtained from the National Cancer Institute (NCI) Developmental Therapeutics Program Chemical Repository (32). The FDA-approved anticancer drug set is available from the Developmental Therapeutics Program at https://dtp.cancer.gov/organization/dscb/obtaining/available plates.htm. […] The stock solutions were prepared in dimethyl sulfoxide (DMSO, Sigma-Aldrich, St. Louis, MO, cat. D2650), except for the platinum compounds which were prepared in saline (Quality Biological, Gaithersburg, MD, cat. 114-055-101), at 800-fold the tested concentration and stored at -70 degrees C prior to their use. All drugs and investigational agents were tested over a range starting from a high concentration at or near the clinical Cmax and decreasing in half-log increments. If the clinical Cmax for an agent had not been determined, the highest concentration tested was 10 microM (Table 1).
Cell Culture. All cells were maintained in an incubator at 37 degrees C and 5% CO2 with 95% humidity. The PDC lines were cultured according to standard operating procedures established by the NCI PDMR (https://pdmr.cancer.gov). Briefly, all PDCs were thawed and cultured in Matrigel-coated flasks prepared with a working solution of 1X Ham's F-12 nutrient mix, without supplementation (Invitrogen, Waltham, MA, cat. 11765054), 100 U/mL penicillin-streptomycin (Invitrogen, cat. 15140122), and 2.5% Matrigel (Corning Inc., Corning, NY, cat. 354248) for the first three passages. All PDCs were cultured in complete DMEM/F-12 media containing advanced DMEM/F-12 (Invitrogen, cat. 12634028), 4.9% defined fetal bovine serum, heat inactivated (HyClone Laboratories Inc., Logan, UT, cat. SH30070.03HI), 389 ng/mL hydrocortisone (Sigma-Aldrich, cat. H4001), 9.7 ng/mL human EGF recombinant protein (Invitrogen, cat. PHG0313), 23.4 microg/mL adenine (Sigma-Aldrich, cat. A2786), 97.3 U/mL penicillin-streptomycin (Invitrogen, cat. 15140122), 1.9 mM L-glutamine (Invitrogen, cat. 25030081), and 9.7 microM Y-27632 dihydrochloride (Tocris Bioscience, Bristol, United Kingdom, cat. 1254). The PDCs were cultured in complete DMEM/F12 media without 10 microM Y-27632 dihydrochloride for at least two passages prior to the screen. The established cell lines NCI-H1341 and […] were cultured in DMEM/F-12, HEPES (Invitrogen, cat. 11330032), 5% defined fetal bovine serum (HyClone Laboratories Inc., cat. SH30070.03), ITS premix universal culture supplement [insulin (5 microg/mL), transferrin (5 microg/mL), and selenious acid (5 ng/mL)] […]

[1] = second compound 0.1 µM, first compound 0.0316 µM
[2] = second compound 0.1 µM, first compound 0.1 µM
[3] = second compound 0.1 µM, first compound 0.316 µM
[4] = second compound 0.1 µM, first compound 1 µM
[5] = second compound 0.1 µM, first compound 3.16 µM
[6] = second compound 0.1 µM, first compound 10 µM
[7] = second compound 0.316 µM, first compound 0.0316 µM
[8] = second compound 0.316 µM, first compound 0.1 µM
[9] = second compound 0.316 µM, first compound 0.316 µM
[10] = second compound 0.316 µM, first compound 1 µM
[11] = second compound 0.316 µM, first compound 3.16 µM
[12] = second compound 0.316 µM, first compound 10 µM
[13] = second compound 1 µM, first compound 0.0316 µM
[14] = second compound 1 µM, first compound 0.1 µM
[15] = second compound 1 µM, first compound 0.316 µM
[16] = second compound 1 µM, first compound 1 µM
[17] = second compound 1 µM, first compound 3.16 µM
[18] = second compound 1 µM, first compound 10 µM
[19] = second compound 3.16 µM, first compound 0.0316 µM
[20] = second compound 3.16 µM, first compound 0.1 µM
[21] = second compound 3.16 µM, first compound 0.316 µM
[22] = second compound 3.16 µM, first compound 1 µM
[23] = second compound 3.16 µM, first compound 3.16 µM
[24] = second compound 3.16 µM, first compound 10 µM
[25] = second compound 10 µM, first compound 0.0316 µM
[26] = second compound 10 µM, first compound 0.1 µM
[27] = second compound 10 µM, first compound 0.316 µM
[28] = second compound 10 µM, first compound 1 µM
[29] = second compound 10 µM, first compound 3.16 µM
[30] = second compound 10 µM, first compound 10 µM

SMILES	IC50 (second compound 0.1 µM) [µM]	IC50 (second compound 0.316 µM) [µM]	IC50 (second compound 1 µM) [µM]	IC50 (second compound 3.16 µM) [µM]	IC50 (second compound 10 µM) [µM]	viability, T/C [1] [%]	viability, T/C [2] [%]	viability, T/C [3] [%]	viability, T/C [4] [%]	viability, T/C [5] [%]	viability, T/C [6] [%]	viability, T/C [7] [%]	viability, T/C [8] [%]	viability, T/C [9] [%]	viability, T/C [13] [%]	viability, T/C [14] [%]	viability, T/C [19] [%]	viability, T/C [20] [%]	viability, T/C [25] [%]	viability, T/C [26] [%]	also measured
CC1(C)CCC(CN2CCN(c3ccc(C(=O)NS(=O)(=O)c4ccc(NCC5CCOCC5)c([N+](=O)[O-])c4)c(Oc4cnc5[nH]ccc5c4)c3)CC2)=C(c2ccc(Cl)cc2)C1 + CC(CO)NC(=O)c1cc(-c2ccc(Cl)cc2)nn(-c2cnn(C)c2)c1=O	2.37	2.15	1.71	1.81	1.24	66.6	74.9	71.8	71.1	43	12.9	76.7	76.5	72.3	83.4	74.4	76.5	88.8	65.7	84.7	viability, T/C [10]: 63.8%; viability, T/C [11]: 43.1%; viability, T/C [12]: 11.7%; viability, T/C [15]: 65.1%; viability, T/C [16]: 61.4%; viability, T/C [17]: 41.4%; viability, T/C [18]: 11.3%; viability, T/C [21]: 83.8%; viability, T/C [22]: 63%; viability, T/C [23]: 36.5%; viability, T/C [24]: 12.4%; viability, T/C [27]: 65.6%; viability, T/C [28]: 54.1%; viability, T/C [29]: 30.2%; viability, T/C [30]: 9.65%
COc1cc(Nc2ncc3c(n2)-c2ccc(Cl)cc2C(c2c(F)cccc2OC)=NC3)ccc1C(=O)O + CC(CO)NC(=O)c1cc(-c2ccc(Cl)cc2)nn(-c2cnn(C)c2)c1=O	< 0.0316	< 0.0316	< 0.0316	< 0.0316	< 0.0316	39.7	45.7	37.7	34.2	28.7	28.6	50.5	34.5	35.5	46.4	44.2	38.4	35.4	35.6	39.7	viability, T/C [10]: 38.2%; viability, T/C [11]: 29.5%; viability, T/C [12]: 27.6%; viability, T/C [15]: 37.2%; viability, T/C [16]: 37.5%; viability, T/C [17]: 33.1%; viability, T/C [18]: 26.7%; viability, T/C [21]: 34%; viability, T/C [22]: 35.8%; viability, T/C [23]: 30.6%; viability, T/C [24]: 27.6%; viability, T/C [27]: 39%; viability, T/C [28]: 29.2%; viability, T/C [29]: 27%; viability, T/C [30]: 28.2%
Cn1ncnc1C1c2n[nH]c(=O)c3cc(F)cc(c23)NC1c1ccc(F)cc1 (stereo not given) + CC(CO)NC(=O)c1cc(-c2ccc(Cl)cc2)nn(-c2cnn(C)c2)c1=O	> 0.1	> 0.1	> 0.1	> 0.1	> 0.1	83.2	77.6	–	–	–	–	91.8	72.3	–	80.5	73.9	76.2	65.9	66.1	69.2	viability, T/C (second compound 0.1 µM, first compound 0.000316 µM): 79.2%; viability, T/C (second compound 0.1 µM, first compound 0.001 µM): 83.4%; viability, T/C (second compound 0.1 µM, first compound 0.00316 µM): 84%; viability, T/C (second compound 0.1 µM, first compound 0.01 µM): 73.5%; viability, T/C (second compound 0.316 µM, first compound 0.000316 µM): 85%; viability, T/C (second compound 0.316 µM, first compound 0.001 µM): 95.7%; viability, T/C (second compound 0.316 µM, first compound 0.00316 µM): 88.8%; viability, T/C (second compound 0.316 µM, first compound 0.01 µM): 76.9%; viability, T/C (second compound 1 µM, first compound 0.000316 µM): 72.5%; viability, T/C (second compound 1 µM, first compound 0.001 µM): 95.4%; viability, T/C (second compound 1 µM, first compound 0.00316 µM): 77.5%; viability, T/C (second compound 1 µM, first compound 0.01 µM): 85.7%; viability, T/C (second compound 3.16 µM, first compound 0.000316 µM): 87.5%; viability, T/C (second compound 3.16 µM, first compound 0.001 µM): 93.8%; viability, T/C (second compound 3.16 µM, first compound 0.00316 µM): 77.1%; viability, T/C (second compound 3.16 µM, first compound 0.01 µM): 62.4%; viability, T/C (second compound 10 µM, first compound 0.000316 µM): 72.4%; viability, T/C (second compound 10 µM, first compound 0.001 µM): 84.2%; viability, T/C (second compound 10 µM, first compound 0.00316 µM): 81%; viability, T/C (second compound 10 µM, first compound 0.01 µM): 65.2%
NS(=O)(=O)OCC1CC(n2ccc3c(NC4CCc5ccccc54)ncnc32)CC1O (stereo not given) + CC(CO)NC(=O)c1cc(-c2ccc(Cl)cc2)nn(-c2cnn(C)c2)c1=O	< 0.0316	< 0.0316	< 0.0316	< 0.0316	< 0.0316	33	28	11	5.48	5.17	3.34	37.6	28.2	13.5	39.7	31.2	32.1	27.6	29.1	23.1	viability, T/C [10]: 6.9%; viability, T/C [11]: 3.38%; viability, T/C [12]: 3.76%; viability, T/C [15]: 13.1%; viability, T/C [16]: 6.82%; viability, T/C [17]: 4.46%; viability, T/C [18]: 3.84%; viability, T/C [21]: 14.8%; viability, T/C [22]: 7.34%; viability, T/C [23]: 5.49%; viability, T/C [24]: 4.2%; viability, T/C [27]: 13.8%; viability, T/C [28]: 7.32%; viability, T/C [29]: 5.1%; viability, T/C [30]: 2.95%
